Laboratory results taken from PubChem BioAssay AID330 (DTP/NCI, 2004).
Where “and” joins values, the source holds several entries; their conditions need not be identical. Equal values may be shown once. Toxic doses and inconclusive results are not listed. How the source made its calls: active means survival T/C of 150% or more; inactive means T/C below 125% in these data.

Tested on: P388 leukemia ip, CD2F1 mice, survival T/C
Assay: NCI In Vivo Anticancer Drug Screen. Data for tumor model P388 Leukemia (intraperitoneal) in CD2F1 (CDF1) mice
Conditions: endpoint: median survival time, higher = longer survival
How it was run: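 Mice carrying the transplanted tumor received test compound or vehicle. Survival was recorded in each group, and the value is the treated-group measurement divided by that of the vehicle-treated control group.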

[1] = dose: 12.5 mg/kg/injection, schedule: Q01DX005 (ip), vehicle: Klucel (hydroxypropylcellulose) (HPC)
[2] = dose: 25.0 mg/kg/injection, schedule: Q01DX005 (ip), vehicle: Klucel (hydroxypropylcellulose) (HPC)

Measured: T/C

Nc1nsc2nc3ccccc3cc12
inactive: dose: 6.25 mg/kg/injection, schedule: Q01DX005 (ip), vehicle: Klucel (hydroxypropylcellulose) (HPC) 102 % of control | [1] 100 % of control | [2] 99 % of control | dose: 100.0 mg/kg/injection, schedule: Q01DX005 (ip), vehicle: Klucel (hydroxypropylcellulose) (HPC) 112 % of control | dose: 200.0 mg/kg/injection, schedule: Q01DX005 (ip), vehicle: Klucel (hydroxypropylcellulose) (HPC) 102 % of control

CCCCCCN(CCCCCC)/C(N)=N/O
inactive: dose: 5.0 mg/kg/injection, schedule: Q01DX009 (ip), vehicle: saline with Tween-80 113 % of control | dose: 10.0 mg/kg/injection, schedule: Q01DX009 (ip), vehicle: saline with Tween-80 105 % of control | dose: 20.0 mg/kg/injection, schedule: Q01DX009 (ip), vehicle: saline with Tween-80 116 % of control

CCCCC(=O)Nc1ccc(S(=O)(=O)O)c(N=NC2C(=O)N(c3ccccc3)N=C2C)c1 (stereo not drawn)
inactive: dose: 100.0 mg/kg/injection, schedule: Q04DX003 (ip), vehicle: saline 110 % of control | dose: 200.0 mg/kg/injection, schedule: Q04DX003 (ip), vehicle: saline 100 % of control | dose: 400.0 mg/kg/injection, schedule: Q04DX003 (ip), vehicle: saline 100 % of control

CCCCCCCCCCCCCCCCCCSC1=CC(=O)C(Cl)=C(Cl)C1=O
inactive: dose: 10.0 mg/kg/injection, schedule: Q01DX009 (ip), vehicle: Klucel (hydroxypropylcellulose) (HPC) 97 % of control | dose: 20.0 mg/kg/injection, schedule: Q01DX009 (ip), vehicle: Klucel (hydroxypropylcellulose) (HPC) 90 % of control

CCOC(=O)NN(C(=O)OCC)C(C(C)=O)C(C)=NCCN=C(C)C(C(C)=O)N(NC(=O)OCC)C(=O)OCC.[Cu] (stereo not drawn)
inactive: [1] 100 % of control | [2] 105 % of control | dose: 50.0 mg/kg/injection, schedule: Q01DX005 (ip), vehicle: Klucel (hydroxypropylcellulose) (HPC) 100 % of control and 107 % of control

CCCCCCCCCCCCCCCCCCCC(O)CCCCCCCCC (stereo not drawn)
inactive: dose: 15.0 mg/kg/injection, schedule: Q01DX005 (ip), vehicle: saline with Tween-80 102 % of control | dose: 30.0 mg/kg/injection, schedule: Q01DX005 (ip), vehicle: saline with Tween-80 94 % of control | dose: 60.0 mg/kg/injection, schedule: Q01DX005 (ip), vehicle: saline with Tween-80 87 % of control | dose: 120.0 mg/kg/injection, schedule: Q01DX005 (ip), vehicle: saline with Tween-80 86 % of control

CC(C)(O)C#C[Si](C)(C)C
inactive: dose: 50.0 mg/kg/injection, schedule: Q01DX005 (ip), vehicle: saline with Tween-80 98 % of control | dose: 100.0 mg/kg/injection, schedule: Q01DX005 (ip), vehicle: saline with Tween-80 103 % of control | dose: 200.0 mg/kg/injection, schedule: Q01DX005 (ip), vehicle: saline with Tween-80 94 % of control

CCCCC([Se])=Nc1ccc(Br)cc1
inactive: dose: 6.25 mg/kg/injection, schedule: Q01DX009 (ip), vehicle: Klucel (hydroxypropylcellulose) (HPC) 106 % of control | dose: 12.5 mg/kg/injection, schedule: Q01DX009 (ip), vehicle: Klucel (hydroxypropylcellulose) (HPC) 104 % of control | dose: 25.0 mg/kg/injection, schedule: Q01DX009 (ip), vehicle: Klucel (hydroxypropylcellulose) (HPC) 104 % of control

CO/N=C/c1ccc([N+](=O)[O-])s1
inactive: dose: 12.0 mg/kg/injection, schedule: Q01DX001 (ip), vehicle: other 90 % of control | dose: 25.0 mg/kg/injection, schedule: Q01DX001 (ip), vehicle: other 104 % of control | dose: 50.0 mg/kg/injection, schedule: Q01DX001 (ip), vehicle: other 100 % of control

CCOC(=O)CCC[P+](c1ccccc1)(c1ccccc1)c1ccccc1
inactive: dose: 5.33 mg/kg/injection, schedule: Q01DX009 (ip), vehicle: saline with Tween-80 109 % of control | dose: 8.0 mg/kg/injection, schedule: Q01DX009 (ip), vehicle: saline with Tween-80 118 % of control | dose: 12.0 mg/kg/injection, schedule: Q01DX009 (ip), vehicle: saline with Tween-80 109 % of control

CN(C)CCCN1CCC2(CCCCC2)CC1
inactive: dose: 50.0 mg/kg/injection, schedule: Q01DX005 (ip), vehicle: saline 94 % of control | dose: 100.0 mg/kg/injection, schedule: Q01DX005 (ip), vehicle: saline 98 % of control | dose: 200.0 mg/kg/injection, schedule: Q01DX005 (ip), vehicle: saline 109 % of control

O=C(O)C[N-]c1ccccc1.O=C(O)C[N-]c1ccccc1.[Ni+2]
inactive: dose: 6.25 mg/kg/injection, schedule: Q01DX009 (ip), vehicle: saline with Tween-80 86 % of control | dose: 12.5 mg/kg/injection, schedule: Q01DX009 (ip), vehicle: saline with Tween-80 91 % of control

O=c1[nH]c2c([N+](=O)[O-])cc(Cl)cc2nc1/C=C(\O)c1ccccn1
inactive: dose: 60.0 mg/kg/injection, schedule: Q01DX005 (ip), vehicle: Klucel (hydroxypropylcellulose) (HPC) 101 % of control | dose: 120.0 mg/kg/injection, schedule: Q01DX005 (ip), vehicle: Klucel (hydroxypropylcellulose) (HPC) 99 % of control | dose: 240.0 mg/kg/injection, schedule: Q01DX005 (ip), vehicle: Klucel (hydroxypropylcellulose) (HPC) 98 % of control

C1CN(CCSSCCN2CCOCC2)CCO1
inactive: dose: 50.0 mg/kg/injection, schedule: Q01DX009 (ip), vehicle: saline 104 % of control | dose: 100.0 mg/kg/injection, schedule: Q01DX009 (ip), vehicle: saline 113 % of control | dose: 200.0 mg/kg/injection, schedule: Q01DX009 (ip), vehicle: saline 109 % of control

[Cl][Ni][Cl]
inactive: dose: 0.78 mg/kg/injection, schedule: Q01DX009 (ip), vehicle: saline 100 % of control | dose: 1.56 mg/kg/injection, schedule: Q01DX009 (ip), vehicle: saline 103 % of control | dose: 3.13 mg/kg/injection, schedule: Q01DX009 (ip), vehicle: saline 100 % of control | dose: 6.25 mg/kg/injection, schedule: Q01DX009 (ip), vehicle: saline 99 % of control | dose: 12.5 mg/kg/injection, schedule: Q01DX009 (ip), vehicle: saline 99 % of control and 101 % of control
